For one data set, the system named is MDCK cells. Kind of data set: MTT cell viability. The settings on record: up to 50 µg/mL, 4 h, Figure 4A. The class given is cell-based, canine. How it is done: (§1) MTT assay was used to evaluate cell viability. Cells were seeded on 96-well plates 1 × 10^4 cells per well, cultured for 24 h until 90% confluent, and exposed to different concentrations of NLCs for 4 h. Then, the medium was replaced with 20 µL MTT (5 mg/mL) and 180 µL serum-free medium. After incubation for 4 h, the medium containing MTT was substituted with 150 µL DMSO. The absorbance of formazan was measured by a microplate reader (BIO-RAD, Hercules, CA, USA) at 490 nm. Untreated cells were taken as the control. The cytotoxicity was expressed as the cell viability compared with the untreated cells. Similarly, the cytotoxicity of endocytosis inhibitors were also evaluated, and the concentrations of each drug were chosen on the basis of the published literature, and EIPA (50 µM), chlorpromazine (30 µM), dynasore (80 µM), and MβCD (2 mM) were used in the present study.

The next data set has as its system MDCK-chAbcg2/Abcb1 cells. The data set is described as follows: MTT cell viability. The class given is cell-based, canine. Conditions: up to 50 µg/mL, 4 h, Figure 4B. How it is done: as §1
The subject of a further data set is chAbcg2/Abcb1 (P-gp). Kind of data set: Bidirectional transport of API and TMS-NLCs across cell monolayers. In kind it is in vitro ADME, canine. The settings on record: dog, MDCK-chAbcg2/Abcb1; for Papp A→B at 4 h, 10 µg/mL / Papp B→A at 4 h, 10 µg/mL: 37 °C; for efflux ratio at 4 h, 10 µg/mL: read-out: ER. How it is done:
(§2) MDCK and MDCK-chAbcg2/Abcb1 cells were seeded on 12-well Transwell® polycarbonate inserts at a density of 2 × 10^5 cells per well to constitute in vitro cell monolayer models. The apical side (AP) of the insert was filled with 0.5 mL medium, and the basolateral (BL) side was filled with 1.5 mL medium. The medium was replaced every two days. It took 5~7 days to form an intact cell monolayer.
(§3) The permeability efficiency was evaluated by comparing the bidirectional transport between API and TMS-NLCs. Briefly, apical-to-basolateral (AP→BL) and basolateral-to-apical (BL→AP) transport across monolayers was conducted by adding 10 µg/mL API or TMS-NLCs to donor compartments and incubating at 37 °C for 4 h. Then, the samples from receiver compartments were taken to analyze TMS concentrations by HPLC.
(§4) TMS is the substrate of glycoprotein (P-gp). To evaluate the inhibition effect of TMS-NLCs on P-gp mediated efflux, cell monolayers were incubated with the P-gp inhibitor verapamil (100 µM) for 1 h, and then, the medium was replaced with a mixture of verapamil and API or TMS-NLCs on one side and co-incubated for 4 h for bidirectional transport assay.
(§5) The efflux ratio (ER) and net efflux ratio (NER) values were obtained from the following equation [27, 28]:ER = Papp(BL→AP)/Papp(AP→BL) NER = ER(MDCK-chAbcg2/Abcb1)/ER(MDCK).

The subject of data set [1] is MDCK-chAbcg2/Abcb1 cell monolayers. The description is as above. In kind it is in vitro ADME, canine. The settings on record: ER(MDCK-chAbcg2/Abcb1)/ER(MDCK). How it is done:
as §2, §3, §4, §5

Test in data set [2]: as above
The class given is in vitro ADME, canine. Conditions: dog, MDCK; for Papp A→B at 4 h, 10 µg/mL / Papp B→A at 4 h, 10 µg/mL: 37 °C; for efflux ratio at 4 h, 10 µg/mL: read-out: ER. The method, then: as §2, §3, §4, §5

Data set [3] has as its system MDCK-chAbcg2/abcb1 monolayers. The data set is described as follows: Transport mechanism of TMS-NLCs across monolayers (tracers, 4 °C, endocytosis inhibitors). How it is done:
To investigate the transport mechanism of TMS-NLCs, propranolol (100 µM) and lucifer yellow (225 µM) as the tracers were added to the AP side and co-incubated with TMS-NLCs for 4 h. The tracers that passed through monolayers to the BL side were quantified. The transport experiments of TMS-NLCs across MDCK-chAbcg2/abcb1 monolayers were also conducted at 4 °C. To get further insights into the transcellular transport of TMS-NLCs, the monolayers were pre-incubated with various endocytosis inhibitors on the AP side for 1 h and then co-incubated with TMS-NLCs for 4 h. The determination of TMS in the samples collected from the BL side was analyzed by HPLC.

The nature of data set [4]: In vitro drug release by the dialysis bag method. In kind it is physicochemical. Conditions: 48 h. How it is done: The in vitro drug release behavior of TMS-NLCs was carried out over 48 h by the dialysis bag method. Briefly, TMS-NLCs or the corresponding active pharmaceutical ingredient (API) of TMS (3 mL, 10 mg/mL) was added into a dialysis bag (MWCO of 100 kD, 16 mm, and 0.79 mL/cm), immersed in the simulated gastric or intestinal juice (500 mL) at 37 °C, and stirred under the magnetic stirrer with 100 rpm. At the set time, the samples (1 mL) were taken out and substituted by the same volume of fresh receptor fluids, and the TMS concentrations were detected by HPLC.
In this study, the concentrations of TMS in various media were detected with HPLC (Thermo U3000, Thermo Fisher Scientific, New York, NY, USA) with a C18 Reverse-phase column (5 µm, 4.6 mm inner diameter × 250 mm length, Agilent, Palo Alto, CA, USA). The mobile phase was acetonitrile–tetrahydrofuran–water–n-dibutylamine phosphate buffer salt solution (12:5.5:80:2.5; v/v). The column temperature was 30 °C, the injection volume was 20 µL, the UV detection wavelength was 291 nm, and the flow rate was 1 mL/min. The samples were filtered through a 0.22 µm filter membrane before HPLC analysis. The concentration of TMS was calculated using the standard curve equation (y = 31.314x − 2.0603, R^2 = 0.9999) for HPLC analysis of TMS, which had the good linear pattern over a range from 1 to 20 µg/mL as reported previously.

The test system of data set [5] is Staphylococcus aureus QWJAB25. The data set is described as follows: Microdilution broth MIC. The class given is cell-based. Conditions: S. aureus. How it is done: (§6) Microdilution broth assay was carried out to evaluate the antibacterial activity of API and TMS-NLCs according to the guidelines of the CLSI. The minimal inhibitory concentration (MIC) was determined against 2 strains of Gram-positive bacteria and 2 strains of Gram-negative bacteria. Staphylococcus aureus QWJAB25 and Streptococcus agalactiae A27 were isolated from milk in a scale farm located in Yangzhou, Jiangsu Province in 2019. The Escherichia coli used in this study was ATCC 25922. The Salmonella Typhimurium strain 1344 was donated by Associate Professor Jian Lin from College of Life Sciences, Nanjing Agricultural University.
A general note: Dilution methods test growth across graded concentrations, often in twofold steps.

Data set [6] deals with Streptococcus agalactiae A27. The data set is described as follows: Microdilution broth MIC. In kind it is cell-based. Conditions: S. agalactiae. The method, then:
as §6

Data set [7] deals with Escherichia coli ATCC 25922. Kind of data set: Microdilution broth MIC. The class given is cell-based. Conditions: ATCC25922, E. coli. How it is done:
as §6

Data set [8] concerns Salmonella Typhimurium strain 1344. The data set is described as follows: Microdilution broth MIC. The class given is cell-based. The settings on record: Salmonella enterica; S. Typhimurium. How it is done: as §6
Data set [9] is described as follows: Permeability of cell monolayers (tracers). The class given is in vitro ADME, canine. The settings on record: dog, 37 °C, lucifer yellow 225 µM, propranolol 100 µM. How it is done: as §2
(§7) During the cultivation, the integrity of cell monolayers was evaluated by the transepithelial electrical resistance (TEER) values measured with Epithelial Volt-Ohm Meter (Millipore, Burlington, MA, USA). Monolayers with TEER values over 500 and 1700 Ω·cm^2 of MDCK and MDCK-chAbcg2/Abcb1 cells respectively were used for drug transport experiments, and the TEER values were also checked after the transport experiment to guarantee the integrity of cell monolayers. TEER = (Rtotal − Rblank) × A (Ω·cm^2)
(§8) After a week of cultivation, the AP side was filled with 0.5 mL propranolol (100 µM) or lucifer yellow (225 µM) and 1.5 mL of Hank’s solution on the BL side for 4 h at 37 °C. The solution on the BL side was collected for fluorescence analysis. The detection wavelengths were 428/540 nm ([…]) and 290/330 nm (propranolol), respectively. The apparent permeability coefficient (Papp) was calculated according to the following equation [24]:Papp = dQ/(dt * AC0) where dQ/dt is the transport rate in the receiver solution, A is the membrane surface area, and C0 is the initial concentration in the donor compartment.

In a further data set the test system is MDCK cell monolayers. The data set is described as follows: Permeability of cell monolayers (tracers). The class given is in vitro ADME, canine. Conditions: AP to BL, 4 h, 37 °C, lucifer yellow 225 µM, propranolol 100 µM. The method, then: as §2, §7, §8
Data set [10] concerns MDCK-chAbcg2/Abcb1 cell monolayers. Kind of data set: Permeability of cell monolayers (tracers). In kind it is in vitro ADME, canine. Conditions: AP to BL, 4 h, 37 °C, lucifer yellow 225 µM, propranolol 100 µM. How it is done:
as §2, §7, §8

The source of these data is article PMC7996536, “Optimization of Tilmicosin-Loaded Nanostructured Lipid Carriers Using Orthogonal Design for Overcoming Oral Administration Obstacle” (Pharmaceutics, 2021).

Values after ≈ are worked out from the molar mass of the structure shown. Where a name gives a salt, the structure may show the parent alone. Read-outs that look alike come from different tables or passages of the source. Some results are limits rather than exact numbers.

For `CC[C@H]1OC(=O)C[C@@H](O)[C@H](C)[C@@H](O[C@@H]2O[C@H](C)[C@@H](O)[C@H](N(C)C)[C@H]2O)[C@@H](CCN2C[C@H](C)C[C@H](C)C2)C[C@@H](C)C(=O)/C=C/C(C)=C/[C@@H]1CO[C@@H]1O[C@H](C)[C@@H](O)[C@@H](OC)[C@H]1OC` [API, Tilmicosin], the “cell viability compared to untreated cells” value with MDCK cells and with MDCK-chAbcg2/Abcb1 cells was “not significantly decreased” each time. In addition, the apical-to-basolateral permeability (Papp A→B) at 4 h, 10 µg/mL in the data set with chAbcg2/Abcb1 (P-gp) (with verapamil (100 µM)) is 0.39 ± 0.04 ×10⁻⁶ cm/s; in the data set with chAbcg2/Abcb1 (P-gp) (without verapamil) it was 0.4 ± 0.02 ×10⁻⁶ cm/s; in data set [2] (with verapamil (100 µM)), 0.38 ± 0.02 ×10⁻⁶ cm/s; in data set [2] (without verapamil) it was 0.42 ± 0.04 ×10⁻⁶ cm/s. Moreover, the Papp B→A at 4 h, 10 µg/mL with chAbcg2/Abcb1 (P-gp) (with verapamil (100 µM)) is 0.39 ± 0.07 ×10⁻⁶ cm/s; in the data set on chAbcg2/Abcb1 (P-gp) (without verapamil), 1.06 ± 0.03 ×10⁻⁶ cm/s; in [2] (with verapamil (100 µM)), 0.41 ± 0.04 ×10⁻⁶ cm/s; in data set [2] (without verapamil), 0.53 ± 0.02 ×10⁻⁶ cm/s. Moreover, the efflux ratio at 4 h, 10 µg/mL amounted to 1 with chAbcg2/Abcb1 (P-gp) (with verapamil (100 µM)), 2.63 with chAbcg2/Abcb1 (P-gp) (without verapamil), 1.06 in data set [2] (with verapamil (100 µM)) and 1.27 in data set [2] (without verapamil). In addition, the NER in data set [1] (with verapamil (100 µM)) was 0.94; in data set [1] (without verapamil) it was 2.07. Moreover, the “Papp at 4 °C” value in [3] is given as “under the detection limit”. For the same compound, the in vitro release is given as roughly 80% in data set [4] (SGF, pH 1.2, 37 °C) and roughly 80% in data set [4] (SIF, pH 6.8, 37 °C). The MIC in [5] was less than 0.5 µg/mL; in data set [6], 16 µg/mL (≈ 18.4 µM); in data set [7] it was 16 µg/mL (≈ 18.4 µM); in data set [8], 16 µg/mL (≈ 18.4 µM).
For `CC(C)NCC(O)COc1cccc2ccccc12` (centres unmarked) [Propranolol, propranolol hydrochloride], the apparent permeability coefficient (Papp) at 4 h, 100 µM in [9] (MDCK, AP to BL) came out at 16.2 ± 0.65 ×10⁻⁶ cm/s; in [9] (MDCK-chAbcg2/Abcb1, AP to BL), 17.6 ± 0.64 ×10⁻⁶ cm/s. For the same compound, in [3], the “Papp of tracer co-incubated with TMS-NLCs versus without” value is “no significant difference”.
With lucifer yellow, the Papp in the data set on MDCK cell monolayers was 0.22 ± 0.06 ×10^−6 cm/s; in data set [10], 0.13 ± 0.01 ×10^−6 cm/s. In data set [3] (AP side, 4 h, Figure 5A), the “Papp of tracer co-incubated with TMS-NLCs versus without” value was “no significant difference”.

The Papp A→B is how fast a substance crosses the layer from the apical side. A word on the Papp B→A: it is the apparent permeability from the basolateral to the apical side of a cell layer. The term Papp denotes a coefficient for how fast a substance crosses the barrier. In general, MIC refers to the smallest concentration in the dilution series that meets the test's criterion for growth inhibition.
